Source: ChEMBL document CHEMBL1153194, “Discovery of halo-nitrobenzamides with potential application against human African trypanosomiasis” (Bioorg Med Chem Lett, 2010)

Tests used:
HepG2 = assay: Cytotoxicity against human HepG2 cells after 72 hrs; type: cell-based; details: HepG2, 72 h
[1] = tested on: Trypanosoma brucei brucei; assay: Antitrypanosomal activity against Trypanosoma brucei brucei after 48 hrs by luminescence assay; type: functional, organism-based
Plasmodium falciparum = assay: Antiplasmodial activity against Plasmodium falciparum 3D7 infected in human O+ erythrocytes after 72 hrs by GNA satin based assay; type: functional, organism-based; details: 3D7, 72 h
[2] = Solubility of the compound; type: physicochemical

SMILES: CCCCCCc1ccc(NC(=O)c2ccc(Cl)cc2[N+](=O)[O-])cc1
- IC50 (HepG2): > 50 µM
- IC50 [1]: 20.8 µM
- IC50 (Plasmodium falciparum): > 15 µM
- solubility [2]: < 0.1 µM

SMILES: CCCCCCc1ccc(NC(=O)c2cc([N+](=O)[O-])ccc2F)cc1
- IC50 (HepG2): 2.5 µM
- IC50 [1]: 1.5 µM
- IC50 (Plasmodium falciparum): 7.3 µM
- solubility [2]: < 0.1 µM

SMILES: CCCCCCc1ccc(NC(=O)c2ccc(F)c([N+](=O)[O-])c2)cc1
- IC50 (HepG2): 10.3 µM
- IC50 [1]: 24 µM
- IC50 (Plasmodium falciparum): > 15 µM
- solubility [2]: < 0.1 µM

SMILES: CCCCCCc1ccc(C(=O)Oc2ccc(Cl)c([N+](=O)[O-])c2)cc1
- IC50 (HepG2): > 50 µM
- IC50 [1]: 24 µM
- IC50 (Plasmodium falciparum): > 15 µM
- solubility [2]: < 0.1 µM

SMILES: Cc1ccc(NC(=O)c2cc([N+](=O)[O-])ccc2Cl)cc1
- IC50 (HepG2): > 50 µM
- IC50 [1]: 7.7 µM
- IC50 (Plasmodium falciparum): > 15 µM

SMILES: O=C(NCc1ccccc1)c1cc([N+](=O)[O-])ccc1Cl
- IC50 (HepG2): > 50 µM
- IC50 [1]: > 50 µM
- IC50 (Plasmodium falciparum): > 15 µM

SMILES: CCCCCCc1ccc(C(=O)Nc2ccc(Cl)c([N+](=O)[O-])c2)cc1
- IC50 (HepG2): > 50 µM
- IC50 [1]: 6 µM
- IC50 (Plasmodium falciparum): > 15 µM
- solubility [2]: < 0.1 µM

SMILES: CCCCCCc1ccc(C(=O)Nc2cc([N+](=O)[O-])ccc2Cl)cc1
- IC50 (HepG2): > 50 µM
- IC50 [1]: > 50 µM
- IC50 (Plasmodium falciparum): > 15 µM
- solubility [2]: < 0.1 µM

SMILES: COc1ccc(N2CCN(C(=O)c3cc([N+](=O)[O-])ccc3Cl)CC2)cc1
- IC50 (HepG2): > 50 µM
- IC50 [1]: 24.5 µM
- IC50 (Plasmodium falciparum): > 15 µM

SMILES: O=C(Nc1ccc(Cl)cc1)c1cc([N+](=O)[O-])ccc1Cl
- IC50 (HepG2): > 50 µM
- IC50 [1]: 1.5 µM
- IC50 (Plasmodium falciparum): > 15 µM

SMILES: CCCCCCc1ccc(NC(=O)c2cc([N+](=O)[O-])ccc2Cl)cc1
- IC50 (HepG2): > 50 µM
- IC50 [1]: 1 µM
- IC50 (Plasmodium falciparum): > 15 µM
- solubility [2]: < 0.1 µM

SMILES: CCCCCCc1ccc(NC(=O)c2ccc([N+](=O)[O-])cc2Cl)cc1
- IC50 (HepG2): > 50 µM
- IC50 [1]: 19 µM
- IC50 (Plasmodium falciparum): > 15 µM
- solubility [2]: < 0.1 µM

SMILES: CCCCCCc1ccc(NC(=O)c2ccc(Cl)c([N+](=O)[O-])c2)cc1
- IC50 (HepG2): > 50 µM
- IC50 [1]: 11.9 µM
- IC50 (Plasmodium falciparum): > 15 µM
- solubility [2]: < 0.1 µM

SMILES: CCCCCCc1ccc(NC(=O)c2cccc([N+](=O)[O-])c2Cl)cc1
- IC50 (HepG2): > 50 µM
- IC50 [1]: > 50 µM
- IC50 (Plasmodium falciparum): > 15 µM
- solubility [2]: < 0.1 µM

SMILES: CCCCCCc1ccc(NC(=O)c2c(Cl)cccc2[N+](=O)[O-])cc1
- IC50 (HepG2): > 50 µM
- IC50 [1]: 29.8 µM
- IC50 (Plasmodium falciparum): > 15 µM
- solubility [2]: < 0.1 µM

SMILES: O=C(NCC1CCCCC1)c1cc([N+](=O)[O-])ccc1Cl
- IC50 (HepG2): > 50 µM
- IC50 [1]: 27 µM
- IC50 (Plasmodium falciparum): > 15 µM

SMILES: COc1ccc(NC(=O)c2cc([N+](=O)[O-])ccc2Cl)cc1
- IC50 (HepG2): > 50 µM
- IC50 [1]: 19.2 µM
- IC50 (Plasmodium falciparum): > 15 µM
